From patent US8299056B2 (Signal Pharmaceuticals, LLC, priority 2008, dated 2012)
Like-named read-outs stand apart in the source and are kept apart here.

Target: T1, Syk (Homo sapiens, UniProt P43405)
T1 construct: purchased Carna Biosciences
Experiment: Syk HTRF assay
Assay type: biochemical
How it was run: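 HTRF kinase assay in HEPES pH 7.6 buffer with MgCl2, DTT and Triton X100; start mix of 87.5 μM ATP and 80 nM biotinylated peptide, 1 h at room temperature. EDTA stop, then Eu-anti-phosphotyrosine/streptavidin-DyLight 647 detection, read as 665/615 nm emission ratio.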

[1] = IC50 activity level, read-out: Activity Level
[2] = read-out: Activity Level (Syk HTRF assay IC50)
[3] = activity levels A-D, read-out: Activity Level (IC50 in the Syk HTRF assay)

Row | SMILES | IC50 [2] [nM] | IC50 [3] [nM] | further results
1 | NC(=O)c1ccc(Nc2nc3cccc(N[C@H]4CCCNC4)n3n2)cc1 [Example 483, (S)-4-(5-(piperidin-3-ylamino)-[1,2,4]triazolo[1,5-a]pyridin-2-ylamino)benzamide] | – | – | IC50 [1]: 0.005 to 250 nM
2 | Nc1cc(Nc2nc3cccc(-c4ccccc4)n3n2)ccn1 [compound 40] | 500 to 1000 | – | –
3 | O[C@H]1CC[C@@H](Cc2cccc3nc(Nc4ccc(C(F)(F)F)cc4)nn23)CC1 [Example 399, cis-4-((2-(4-(trifluoromethyl)phenylamino)-[1,2,4]triazolo[1,5-a]pyridin-5-yl)methyl)cyclohexanol] | – | – | IC50 [1]: 0.005 to 250 nM
4 | O=C1NCc2cc(Nc3nc4cccc(Cc5ccnc(O)c5)n4n3)ccc21 [Example 157, 5-(5-((2-hydroxypyridin-4-yl)methyl)-[1,2,4]triazolo[1,5-a]pyridin-2-ylamino)isoindolin-1-one] | 0.005 to 250 | – | –
5 | CC(C)(O)[C@H]1CC[C@H](Nc2cccc3nc(Nc4ccc(C(F)(F)F)cc4)nn23)CC1 (stereo in doubt) [Example 397, trans-2-(4-(2-(4-(trifluoromethyl)phenylamino)-[1,2,4]triazolo[1,5-a]pyridin-5-ylamino)cyclohexyl)propan-2-ol] | – | 1000 to 10000 | –
6 | CNC(=O)c1ccc(Nc2nc3cccc(-c4ccc(C(=O)O)cc4)n3n2)cc1 [compound 29, 4-(2-(4-(methylcarbamoyl)phenylamino)-[1,2,4]triazolo[1,5-a]pyridin-5-yl)benzoic acid] | 1000 to 10000 | – | –
7 | CC1(C)NC(=O)c2cc(Nc3nc4cccc(NC5CCOCC5)n4n3)ccc21 [compound 128, 3,3-dimethyl-6-(5-(tetrahydro-2H-pyran-4-ylamino)-[1,2,4]triazolo[1,5-a]pyridin-2-ylamino)isoindolin-1-one] | 500 to 1000 | – | –
8 | N#Cc1ccc(Nc2nc3cccc(N[C@H]4CC[C@@H](O)CC4)n3n2)cc1 [Example 363, 4-(5-(cis-4-hydroxycyclohexylamino)-[1,2,4]triazolo[1,5-a]pyridin-2-ylamino)benzonitrile] | – | 0.005 to 250 | –
9 | C[C@H](CO)Nc1cccc2nc(Nc3ccc(C(F)(F)F)cc3)nn12 [Example 328, (R)-2-(2-(4-(trifluoromethyl)phenylamino)-[1,2,4]triazolo[1,5-a]pyridin-5-ylamino)propan-1-ol] | – | 1000 to 10000 | –
10 | Oc1cccc(-c2cccc3nc(Nc4ccccc4)nn23)c1 [Example 92] | 0.005 to 250 | – | –
11 | O[C@H]1CCCN(Cc2cccc3nc(Nc4ccc(C(F)(F)F)cc4)nn23)C1 [Example 300, (S)-1-((2-(4-(trifluoromethyl)phenylamino)-[1,2,4]triazolo[1,5-a]pyridin-5-yl)methyl)piperidin-3-ol] | – | 1000 to 10000 | –
12 | COCc1n[nH]c2cc(Nc3nc4cccc(CN5CCNC(=O)C5)n4n3)ccc12 [Example 533, 4-((2-(3-(methoxymethyl)-1H-indazol-6-ylamino)-[1,2,4]triazolo[1,5-a]pyridin-5-yl)methyl)piperazin-2-one] | – | – | IC50 [1]: 0.005 to 250 nM
13 | Cc1n[nH]c2cc(Nc3nc4cccc(N5CC(O)C5)n4n3)ccc12 [Example 215, 1-(2-(3-methyl-1H-indazol-6-ylamino)-[1,2,4]triazolo[1,5-a]pyridin-5-yl)azetidin-3-ol] | – | 0.005 to 250 | –
14 | Cc1n[nH]c2cc(Nc3nc4cccc(CN5CCN(c6ccc7c(C)n[nH]c7c6)C(=O)C5)n4n3)ccc12 [Example 234, 1-(3-methyl-1H-indazol-6-yl)-4-((2-(3-methyl-1H-indazol-6-ylamino)-[1,2,4]triazolo[1,5-a]pyridin-5-yl)methyl)piperazin-2-one] | – | 1000 to 10000 | –
15 | CNC(=O)c1ccc(Nc2nc3cccc(N4CCC(O)CC4)n3n2)cc1 [Example 242, 4-(5-(4-hydroxypiperidin-1-yl)-[1,2,4]triazolo[1,5-a]pyridin-2-ylamino)-N-methylbenzamide] | – | 1000 to 10000 | –
16 | CNC(=O)c1ccc(Nc2nc3cccc(-c4cccc(O)c4)n3n2)cc1 [compound 36, 4-(5-(3-hydroxyphenyl)-[1,2,4]triazolo[1,5-a]pyridin-2-ylamino)-N-methylbenzamide] | 0.005 to 250 | – | –
17 | c1ccc(Nc2nc3cccc(NC4CCNCC4)n3n2)cc1 [Example 523, N^2-phenyl-N^5-(piperidin-4-yl)-[1,2,4]triazolo[1,5-a]pyridine-2,5-diamine] | – | – | IC50 [1]: 500 to 1000 nM
18 | Nc1noc2cc(Nc3nc4cccc(-c5ccccc5)n4n3)ccc12 [compound 44] | 250 to 500 | – | –
19 | Cn1ncc2ccc(Nc3nc4cccc(NC5CCCNC5)n4n3)cc21 (stereo in doubt) [Example 463, (R)-N^2-(1-methyl-1H-indazol-6-yl)-N^5-(piperidin-3-yl)-[1,2,4]triazolo[1,5-a]pyridin-2,5-diamine] | – | – | IC50 [1]: 500 to 1000 nM
20 | NC(=O)[C@H]1CC[C@@H](Nc2cccc3nc(Nc4ccccc4)nn23)CC1 [Example 519, cis-4-(2-(phenylamino)-[1,2,4]triazolo[1,5-a]pyrridin-5-ylamino)cyclohexanecarboxamide] | – | – | IC50 [1]: 1000 to 10000 nM

Row | SMILES | IC50 [2] [nM] | IC50 [3] [nM] | further results
21 | Cc1cc(Nc2nc3cccc(N[C@H]4CC[C@@H](O)CC4)n3n2)ccc1F [Example 320, cis-4-(2-(4-fluoro-3-methylphenylamino)-[1,2,4]triazolo[1,5-a]pyridin-5-ylamino)cyclohexanol] | – | 0.005 to 250 | –
22 | O[C@@H]1CCC[C@H](Nc2cccc3nc(Nc4ccc(C(F)(F)F)cc4)nn23)C1 (single isomer, unassigned; enantiomer 1) [Example 223, cis-3-(2-(4-(trifluoromethyl)phenylamino)-[1,2,4]triazolo[1,5-a]pyridin-5-ylamino)cyclohexanol (enantiomer 1)] | – | 1000 to 10000 | –
23 | Cc1n[nH]c2ncc(Nc3nc4cccc(CC5CCOCC5)n4n3)cc12 [Example 544, 3-methyl-N-(5-((tetrahydro-2H-pyran-4-yl)methyl)-[1,2,4]triazolo[1,5-a]pyridin-2-yl)-1H-pyrazolo[3,4-b]pyridin-5-amine] | – | – | IC50 [1]: 500 to 1000 nM
24 | CN(c1cccc2nc(Nc3ccc4c(cnn4C)c3)nn12)C1CCOCC1 [Example 542, N^5-methyl-N^2-(1-methyl-1H-indazol-5-yl)-N^5-(tetrahydro-2H-pyran-4-yl)-[1,2,4]triazolo[1,5-a]pyridine-2,5-diamine] | – | – | IC50 [1]: 0.005 to 250 nM
25 | CC(Cc1cccc2nc(Nc3ccccc3)nn12)C(N)=O (stereo in doubt) [Example 461, (S)-2-methyl-3-(2-(phenylamino)-[1,2,4]triazolo[1,5-a]pyridin-5-yl)propanamide] | – | – | IC50 [1]: 1000 to 10000 nM
26 | NC(=O)c1ccc(Nc2nc3cccc(N[C@H]4CC[C@@H](O)CC4)n3n2)c(F)c1 [Example 340, cis-3-fluoro-4-(5-(4-hydroxycyclohexylamino)-[1,2,4]triazolo[1,5-a]pyridin-2-ylamino)benzamide] | – | 1000 to 10000 | –
27 | O=C1CN(Cc2cccc3nc(Nc4ccc(C(F)(F)F)cc4)nn23)CC(=O)N1 [Example 264, 4-((2-(4-(trifluoromethyl)phenylamino)-[1,2,4]triazolo[1,5-a]pyridin-5-yl)methyl)piperazine-2,6-dione] | – | 0.005 to 250 | –
28 | CNC(=O)c1ccc(Nc2nc3cccc(-c4cccc(-c5cnc[nH]5)c4)n3n2)cc1 [compound 7, 4-(5-(3-(1H-imidazol-5-yl)phenyl)-[1,2,4]triazolo[1,5-a]pyridin-2-ylamino)-N-methylbenzamide] | 0.005 to 250 | – | –
29 | CNC(=O)c1ccc(Nc2nc3cccc(-c4cccc(OC)c4)n3n2)cc1 [compound 20, 4-(5-(3-methoxyphenyl)-[1,2,4]triazolo[1,5-a]pyridin-2-ylamino)-N-methylbenzamide] | 250 to 500 | – | –
30 | CNC(=O)c1ccc(Nc2nc3cccc(-n4ccnc4)n3n2)cc1 [Example 241, 4-(5-(1H-imidazol-1-yl)-[1,2,4]triazolo[1,5-a]pyridin-2-ylamino)-N-methylbenzamide] | – | 1000 to 10000 | –
31 | O=S1(=O)NCc2ccc(Nc3nc4cccc(-c5ccccc5)n4n3)cc21 [compound 37] | 0.005 to 250 | – | –
32 | O=C1NCc2cc(Nc3nc4cccc(N[C@H]5CC[C@@H](O)CC5)n4n3)ccc21 [Example 253, cis-5-(5-(4-hydroxycyclohexylamino)-[1,2,4]triazolo[1,5-a]pyridin-2-ylamino)isoindolin-1-one] | – | 0.005 to 250 | –
33 | Cc1n[nH]c2cc(Nc3nc4cccc(CN5CCNC(=O)C5)n4n3)ccc12 [Example 235, 4-((2-(3-methyl-1H-indazol-6-ylamino)-[1,2,4]triazolo[1,5-a]pyridin-5-yl)methyl)piperazin-2-one] | – | 0.005 to 250 | –
34 | Cn1ncc2cc(Nc3nc4cccc(N[C@H]5CC[C@@H](O)CC5)n4n3)cnc21 [Example 139, cis-4-(2-(1-methyl-1H-pyrazolo[3,4-b]pyridin-5-ylamino)-[1,2,4]triazolo[1,5-a]pyridin-5-ylamino)cyclohexanol] | 0.005 to 250 | – | –
35 | Cc1n[nH]c2cc(Nc3nc4cccc(O[C@@H]5COC[C@@H]5O)n4n3)ccc12 (racemic) [Example 165, (±)-cis-4-(2-(3-methyl-1H-indazol-6-ylamino)-[1,2,4]triazolo[1,5-a]pyridin-5-yloxy)tetrahydrofuran-3-ol] | 250 to 500 | – | –
36 | CC1(C)C(=O)Nc2cc(Nc3nc4cccc(CC5CCOCC5)n4n3)ccc21 [Example 176, 3,3-dimethyl-6-(5-((tetrahydro-2H-pyran-4-yl)methyl)-[1,2,4]triazolo[1,5-a]pyridin-2-ylamino)indolin-2-one] | 0.005 to 250 | – | –
37 | c1ccc(Nc2nc3cccc(NC4CCOCC4)n3n2)cc1 [Example 438, N^2-phenyl-N^5-(tetrahydro-2H-pyran-4-yl)-[1,2,4]triazolo[1,5-a]pyridine-2,5-diamine] | – | – | IC50 [1]: 1000 to 10000 nM
38 | CN1Cc2cc(Nc3nc4cccc(NC5CCOCC5)n4n3)ccc2C1=O [Example 144, 2-methyl-5-(5-(tetrahydro-2H-pyran-4-ylamino)-[1,2,4]triazolo[1,5-a]pyridin-2-ylamino)isoinoldin-1-one] | 1000 to 10000 | – | –
39 | O[C@H]1CCC[C@H](Nc2cccc3nc(Nc4ccc(C(F)(F)F)cc4)nn23)C1 (racemic) [Example 373, (±)trans-3-(2-(4-(trifluoromethyl)phenylamino)-[1,2,4]triazolo[1,5-a]pyridin-5-ylamino)cyclohexanol] | – | 500 to 1000 | –
